Data published in patent US6525001B1, “Substituted pyrimidine and pyridine herbicides” (Mid-American Commercialization Corporation, priority 1997, dated 2003).

Tests used:
Type in all cases: in vivo
B. signalgrass = experiment: Test E pre-/postemergence/post directed; design: key: 0 is no effect; 100 is complete control; conditions: PREEMERGENCE
How it was run: (§1)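 Injury was scored visually on a 0 to 100 scale (100 = complete control) 13 to 21 days after treatment of greenhouse-grown plants. Test chemicals, in a surfactant-containing non-phytotoxic solvent, were sprayed onto soil within a day of planting, onto plants at the two to four leaf stage, or directed at the base of the plants.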

[1] = tested on: arrowleaf sida (Sida rhombifolia); experiment: Test E pre-/postemergence/post directed; design: key: 0 is no effect; 100 is complete control; conditions: PREEMERGENCE
How it was run: as §1

[2] = tested on: sandbur (Cenchrus echinatus); experiment: Test E pre-/postemergence/post directed; design: key: 0 is no effect; 100 is complete control; conditions: PREEMERGENCE, Rate 250 g/ha
How it was run: as §1

[3] = tested on: Italian ryegrass (Lolium multiflorum); experiment: Test D; conditions: POSTEMERGENCE
Procedure: (§2) Compounds evaluated in this test were formulated in a non-phytotoxic solvent mixture which included a surfactant and applied to plants that were in the 1- to 4-leaf stage (postemergence application). A mixture of sandy loam soil and greenhouse potting mix in a 60:40 ratio was used for the postemergence test.
(§3) Plantings of these crops and weed species were adjusted to produce plants of appropriate size for the postemergence test. All plant species were grown using normal greenhouse practices. Crop and weed species include alfalfa (Medicago sativa), annual bluegrass (Poa annua), blackgrass (Alopecurus myosuroides), black nightshade (Solanum nigra), chickweed (Stellaria media), common poppy (Papaver rhoeas), deadnettle (Lamium amplexicaule), downy brome (Bromus tectorum), field violet (Viola arvensis), galium 2 (Galium aparine), green foxtail (Setaria viridis), Italian ryegrass (Lolium multiflorum), jointed goatgrass (Aegilops cylindrica), kochia (Kochia scoparia), lambsquarters (Chenopodium album), lentil (Lens culinaris), littleseed canarygrass (Phalaris minor), pea (Pisum sativum), potato (Solanum tuberosum), rape (Brassica napus), redroot pigweed (Amaranthus retroflexus), Russian thistle (Salsola kali), scentless chamomile (Matricaria inodora), sorghum (Sorghum vulgare), spring barley (Hordeum vulgare), sugar beet (Beta vulgaris), sunflower (Helianthus annuus), ivyleaf speedwell (Veronica hederaefolia), spring wheat (Triticum aestivum), winter wheat (Triticum aestivum), wild buckwheat (Polygonum convolvulus), wild mustard (Sinapis arvensis), wild oat (Avena fatua), windgrass (Apera spica-venti) and winter barley (Hordeum vulgare).
(§4) Treated plants and untreated controls were maintained in a greenhouse for approximately 21 to 28 days, after which all treated plants were compared to untreated controls and visually evaluated. Plant response ratings, summarized in Table D, are based upon a 0 to 100 scale where 0 is no effect and 100 is complete control. A dash response (−) means no test result.

[4] = tested on: annual bluegrass (Poa annua); experiment: Test D; conditions: POSTEMERGENCE
Procedure: as §2, §3, §4

[5] = tested on: blackgrass (Alopecurus myosuroides); experiment: Test D; conditions: POSTEMERGENCE
Procedure: as §2, §3, §4

[6] = tested on: downy brome (Bromus tectorum); experiment: Test D; conditions: POSTEMERGENCE
Procedure: as §2, §3, §4

[7] = tested on: green foxtail (Setaria viridis); experiment: Test D; conditions: POSTEMERGENCE
Procedure: as §2, §3, §4

[8] = tested on: jointed goatgrass (Aegilops cylindrica); experiment: Test D; conditions: POSTEMERGENCE
Procedure: as §2, §3, §4

[9] = tested on: littleseed canarygrass (Phalaris minor); experiment: Test D; conditions: POSTEMERGENCE
Procedure: as §2, §3, §4

[10] = tested on: scentless chamomile (Matricaria inodora); experiment: Test D; conditions: POSTEMERGENCE
Procedure: as §2, §3, §4

[11] = tested on: spring barley (Hordeum vulgare); experiment: Test D; conditions: POSTEMERGENCE
Procedure: as §2, §3, §4

[12] = tested on: spring wheat (Triticum aestivum); experiment: Test D; conditions: POSTEMERGENCE
Procedure: as §2, §3, §4

[13] = tested on: sunflower (Helianthus annuus); experiment: Test D; conditions: POSTEMERGENCE
Procedure: as §2, §3, §4

wild oat (Avena fatua) = experiment: Test D; conditions: POSTEMERGENCE
Procedure: as §2, §3, §4

[14] = tested on: winter barley (Hordeum vulgare); experiment: Test D; conditions: POSTEMERGENCE
Procedure: as §2, §3, §4

[15] = tested on: winter wheat (Triticum aestivum); experiment: Test D; conditions: POSTEMERGENCE
Procedure: as §2, §3, §4

Cc1cnc(-c2ccc(C(F)(F)F)cc2)nc1Cc1cccc(OC(F)(F)F)c1 [Compound 15]
Plant response rating, B. signalgrass (B. signalgrass; Rate 32 g/ha): 35
Plant response rating, B. signalgrass (B. signalgrass; Rate 64 g/ha): 60
Plant response rating, B. signalgrass (B. signalgrass; Rate 125 g/ha): 95
Plant response rating, B. signalgrass (B. signalgrass; Rate 250 g/ha): 98
Plant response rating, Arrowleaf sida ([1]; Rate 32 g/ha): 65
Plant response rating, Arrowleaf sida ([1]; Rate 64 g/ha): 50
Plant response rating, Arrowleaf sida ([1]; Rate 125 g/ha): 100
Plant response rating, Arrowleaf sida ([1]; Rate 250 g/ha): 100
Plant response rating, Sandbur [2]: 100

CCc1cnc(-c2ccc(C(F)(F)F)cc2)nc1Cc1cccc(C(F)(F)F)c1 [Compound 22]
Plant response rating, I. Ryegrass ([3]; Rate 62 g/ha): 10
Plant response rating, I. Ryegrass ([3]; Rate 125 g/ha): 10
Plant response rating, Annual bluegras ([4]; Rate 62 g/ha): 30
Plant response rating, Annual bluegras ([4]; Rate 125 g/ha): 70
Plant response rating, Blackgrass ([5]; Rate 62 g/ha): 10
Plant response rating, Blackgrass ([5]; Rate 125 g/ha): 20
Plant response rating, Downy brome ([6]; Rate 62 g/ha): 10
Plant response rating, Downy brome ([6]; Rate 125 g/ha): 20
Plant response rating, Green foxtail ([7]; Rate 62 g/ha): 10
Plant response rating, Green foxtail ([7]; Rate 125 g/ha): 35
Plant response rating, Jointed goatgra ([8]; Rate 62 g/ha): 10
Plant response rating, Jointed goatgra ([8]; Rate 125 g/ha): 15
Plant response rating, LS canarygrass ([9]; Rate 62 g/ha): 20
Plant response rating, LS canarygrass ([9]; Rate 125 g/ha): 60
Plant response rating, Scentless chamo ([10]; Rate 62 g/ha): 50
Plant response rating, Scentless chamo ([10]; Rate 125 g/ha): 80
Plant response rating, Spring Barley ([11]; Rate 62 g/ha): 10
Plant response rating, Spring Barley ([11]; Rate 125 g/ha): 20
Plant response rating, Spring Wheat ([12]; Rate 62 g/ha): 10
Plant response rating, Spring Wheat ([12]; Rate 125 g/ha): 20
Plant response rating, Sunflower ([13]; Rate 62 g/ha): 10
Plant response rating, Sunflower ([13]; Rate 125 g/ha): 20
Plant response rating, Wild oat (wild oat (Avena fatua); Rate 62 g/ha): 20
Plant response rating, Wild oat (wild oat (Avena fatua); Rate 125 g/ha): 65
Plant response rating, Barley (winter) ([14]; Rate 62 g/ha): 10
Plant response rating, Barley (winter) ([14]; Rate 125 g/ha): 10
Plant response rating, Wheat (winter) ([15]; Rate 62 g/ha): 10
Plant response rating, Wheat (winter) ([15]; Rate 125 g/ha): 10
